Results from patent US9850256B2, “Antibacterial basic biaromatic derivatives with aminoalkoxy substitution” (priority 2014, dated 2017).
Values after ≈ are worked out from the molar mass of the structure shown.

Legend:
Assay in all cases: Bacterial growth minimal inhibitory concentration (microdilution, cation-adjusted Mueller-Hinton Broth)
K. pneumoniae T6474 = format: cell-based, Klebsiella pneumoniae; details: Klebsiella pneumoniae, T6474; multiply-resistant strain (penicillin-, cephalosporin- and quinolone-resistant)
Procedure: (§1) Minimal Inhibitory Concentrations (MICs; mg/L) were determined in cation-adjusted Mueller-Hinton Broth by a microdilution method following the description given in “Methods for Dilution Antimicrobial Susceptibility Tests for Bacteria that Grow Aerobically”, Approved standard, 7th ed., Clinical and Laboratory Standards Institute (CLSI) Document M7-A7, Wayne, Pa., USA (2006).
(§2) All Example compounds were tested against several Gram positive and Gram negative bacteria. […] Staphylococcus aureus A798 is a multiply-resistant strain (methicillin- and quinolone-resistant), Klebsiella pneumoniae T6474 is a multiply-resistant strain (penicillin-, cephalosporin- and in particular quinolone-resistant), while E. coli ATCC25922 and Pseudomonas aeruginosa ATCC 27853 are quinolone-sensitive strains.

P. aeruginosa ATCC 27853 = format: cell-based, Pseudomonas aeruginosa; details: Pseudomonas aeruginosa, ATCC27853; quinolone-sensitive strain
Procedure: as §1, §2

E. coli ATCC25922 = format: cell-based; details: Escherichia coli, ATCC25922; quinolone-sensitive strain
Procedure: as §1, §2

S. aureus A798 = format: cell-based, Staphylococcus aureus; details: Staphylococcus aureus, A798; multiply-resistant strain (methicillin- and quinolone-resistant)
Procedure: as §1, §2

Structure (SMILES) | MIC (K. pneumoniae T6474) [µg/mL] | MIC (P. aeruginosa ATCC 27853) [µg/mL] | MIC (E. coli ATCC25922) [µg/mL] | MIC (S. aureus A798) [µg/mL]
CN1CC[C@@H]1COc1cccc(-c2cccc(CNCC[C@H]3CN(c4ccc5c(n4)NC(=O)CO5)C(=O)O3)c2)n1 [Example $125, 6-[(S)-5-(2-{3-[6-((R)-1-methyl-azetidin-2-ylmethoxy)-pyridin-2-yl]-benzylamino}-ethyl)-2-oxo-oxazolidin-3-yl]-4H-pyrido[3,2-b][1,4]oxazin-3-one] | 2 (≈ 3.67 µM) | 4 (≈ 7.34 µM) | 1 (≈ 1.84 µM) | 0.5 (≈ 0.918 µM)
C[C@H]1NC[C@H]1Oc1cccc(-c2cccc(CNCC[C@H]3CN(c4ccc5c(n4)NC(=O)CO5)C(=O)O3)c2)n1 (mixture of isomers) [Example $135, 6-[(S)-5-(2-{3-[6-((2RS,3RS)-2-methyl-azetidin-3-yloxy)-pyridin-2-yl]-benzylamino}-ethyl)-2-oxo-oxazolidin-3-yl]-4H-pyrido[3,2-b][1,4]oxazin-3-one] | 1 | 0.5 | 0.5 | 0.5
CN(C)CCOc1cccc(-c2cccc(CNCC[C@H]3CN(c4ccc5c(n4)NC(=O)CO5)C(=O)O3)c2)c1 [Example 2, 6-[(S)-5-(2-{[3′-(2-dimethylamino-ethoxy)-biphenyl-3-ylmethyl]-amino}-ethyl)-2-oxo-oxazolidin-3-yl]-4H-pyrido[3,2-b][1,4]oxazin-3-one] | 2 (≈ 3.76 µM) | 4 (≈ 7.52 µM) | 2 (≈ 3.76 µM) | 0.5 (≈ 0.941 µM)
COc1cc(OCCN)cc(-c2cccc(CNCC[C@H]3CN(c4ccc5c(n4)NC(=O)CO5)C(=O)O3)c2)c1 [Example 21, 6-[(S)-5-(2-{[3′-(2-amino-ethoxy)-5′-methoxy-biphenyl-3-ylmethyl]-amino}-ethyl)-2-oxo-oxazolidin-3-yl]-4H-pyrido[3,2-b][1,4]oxazin-3-one] | 2 (≈ 3.75 µM) | 1 (≈ 1.87 µM) | 1 (≈ 1.87 µM) | 0.5 (≈ 0.937 µM)
O=C1COc2ccc(N3C[C@H](CCNCc4cccc(-c5cccc(OC[C@@H]6CCCN6)n5)c4)OC3=O)nc2N1 [Example $133, 6-[(S)-2-oxo-5-(2-{3-[6-((S)-1-pyrrolidin-2-ylmethoxy)-pyridin-2-yl]-benzylamino}-ethyl)-oxazolidin-3-yl]-4H-pyrido[3,2-b][1,4]oxazin-3-one] | 2 (≈ 3.67 µM) | 0.5 (≈ 0.918 µM) | 1 (≈ 1.84 µM) | 1 (≈ 1.84 µM)
CN1CC[C@H](COc2cccc(-c3cccc(CNCC[C@H]4CN(c5ccc6c(n5)NC(=O)CO6)C(=O)O4)c3)n2)C1 [Example $141, 6-[(S)-5-(2-{3-[6-((S)-1-methyl-pyrrolidin-3-ylmethoxy)-pyridin-2-yl]-benzylamino}-ethyl)-2-oxo-oxazolidin-3-yl]-4H-pyrido[3,2-b][1,4]oxazin-3-one] | 2 (≈ 3.58 µM) | 2 (≈ 3.58 µM) | 2 (≈ 3.58 µM) | 0.5 (≈ 0.895 µM)
O=C1COc2ccc(N3C[C@H](CCNCc4cccc(-c5cc(O[C@@H]6CCNC6)ncn5)c4)OC3=O)nc2N1 [Example $116, 6-[(S)-2-oxo-5-(2-{3-[6-((R)-pyrrolidin-3-yloxy)-pyrimidin-4-yl]-benzylamino}-ethyl)-oxazolidin-3-yl]-4H-pyrido[3,2-b][1,4]oxazin-3-one] | 8 (≈ 15 µM) | 2 (≈ 3.76 µM) | 2 (≈ 3.76 µM) | 4 (≈ 7.52 µM)
NCCCCOc1cccc(-c2cccc(CNCC[C@H]3CN(c4ccc5c(n4)NC(=O)CO5)C(=O)O3)c2)c1 [Example 5, 6-[(S)-5-(2-{[3′-(4-amino-butoxy)-biphenyl-3-ylmethyl]-amino}-ethyl)-2-oxo-oxazolidin-3-yl]-4H-pyrido[3,2-b][1,4]oxazin-3-one] | 4 (≈ 7.52 µM) | 4 (≈ 7.52 µM) | 4 (≈ 7.52 µM) | 2 (≈ 3.76 µM)
CN1CCC[C@H]1COc1cccc(-c2cccc(CNCC[C@H]3CN(c4ccc5c(n4)NC(=O)CO5)C(=O)O3)c2)n1 [Example $130, 6-[(S)-5-(2-{3-[6-((S)-1-methyl-pyrrolidin-2-ylmethoxy)-pyridin-2-yl]-benzylamino}-ethyl)-2-oxo-oxazolidin-3-yl]-4H-pyrido[3,2-b][1,4]oxazin-3-one] | 2 (≈ 3.58 µM) | 4 (≈ 7.16 µM) | 1 (≈ 1.79 µM) | 0.25 (≈ 0.448 µM)
COc1cc(O[C@H]2CCN(C)C2)nc(-c2cccc(CNCC[C@H]3CN(c4ccc5c(n4)NC(=O)CO5)C(=O)O3)c2)c1 [Example $136, 6-[(S)-5-(2-{3-[4-methoxy-6-((S)-1-methyl-pyrrolidin-3-yloxy)-pyridin-2-yl]-benzylamino}-ethyl)-2-oxo-oxazolidin-3-yl]-4H-pyrido[3,2-b][1,4]oxazin-3-one] | 2 (≈ 3.48 µM) | 2 (≈ 3.48 µM) | 1 (≈ 1.74 µM) | 0.25 (≈ 0.435 µM)
O=C1COc2ccc(N3C[C@H](CCNCc4cccc(-c5cc(OC6CNC6)cnn5)c4)OC3=O)nc2N1 [Example $114, 6-[(S)-5-(2-{3-[5-(azetidin-3-yloxy)-pyridazin-3-yl]-benzylamino}-ethyl)-2-oxo-oxazolidin-3-yl]-4H-pyrido[3,2-b][1,4]oxazin-3-one] | 8 (≈ 15.5 µM) | 1 (≈ 1.93 µM) | 4 (≈ 7.73 µM) | 16 (≈ 30.9 µM)
CN1CC[C@H](Oc2cccc(-c3cccc(CNCC[C@@H]4CN(c5ccc6c(c5)NC(=O)CS6)C(=O)O4)c3)n2)C1 [Example $150, 6-[(R)-5-(2-{3-[6-((S)-1-methyl-pyrrolidin-3-yloxy)-pyridin-2-yl]-benzylamino}-ethyl)-2-oxo-oxazolidin-3-yl]-4H-benzo[1,4]thiazin-3-one] | 2 (≈ 3.57 µM) | 2 (≈ 3.57 µM) | 2 (≈ 3.57 µM) | 2 (≈ 3.57 µM)
NCCOc1cccc(-c2ccnc(CNCC[C@H]3CN(c4ccc5c(n4)NC(=O)CO5)C(=O)O3)c2)n1.O=CO [Example 16, 6-[(S)-5-(2-{[6-(2-amino-ethoxy)-[2,4′]bipyridinyl-2′-ylmethyl]-amino}-ethyl)-2-oxo-oxazolidin-3-yl]-4H-pyrido[3,2-b][1,4]oxazin-3-one formate] | 4 | 0.5 | 2 | 0.5

The next lines start with the values.

MIC (K. pneumoniae T6474) [µg/mL] | MIC (P. aeruginosa ATCC 27853) [µg/mL] | MIC (E. coli ATCC25922) [µg/mL] | MIC (S. aureus A798) [µg/mL] | Structure (SMILES)
2 (≈ 3.88 µM) | 2 (≈ 3.88 µM) | 2 (≈ 3.88 µM) | 2 (≈ 3.88 µM) | O=C1COc2ccc(N3C[C@H](CCNCc4cccc(-c5cccc(OC6CNC6)c5)c4)OC3=O)nc2N1 [Example $105, 6-[(S)-5-(2-{[3′-(azetidin-3-yloxy)-biphenyl-3-ylmethyl]-amino}-ethyl)-2-oxo-oxazolidin-3-yl]-4H-pyrido[3,2-b][1,4]oxazin-3-one]
1 (≈ 1.84 µM) | 0.5 (≈ 0.918 µM) | 0.5 (≈ 0.918 µM) | 0.25 (≈ 0.459 µM) | O=C1COc2ccc(N3C[C@H](CCNCc4cccc(-c5cccc(OC[C@H]6CCCN6)n5)c4)OC3=O)nc2N1 [Example $132, 6-[(S)-2-oxo-5-(2-{3-[6-((R)-1-pyrrolidin-2-ylmethoxy)-pyridin-2-yl]-benzylamino}-ethyl)-oxazolidin-3-yl]-4H-pyrido[3,2-b][1,4]oxazin-3-one]
2 (≈ 3.76 µM) | 2 (≈ 3.76 µM) | 1 (≈ 1.88 µM) | 2 (≈ 3.76 µM) | CN1CC(Oc2cnnc(-c3cccc(CNCC[C@H]4CN(c5ccc6c(n5)NC(=O)CO6)C(=O)O4)c3)c2)C1 [Example $174, 6-[(S)-5-(2-{3-[5-(1-methyl-azetidin-3-yloxy)-pyridazin-3-yl]-benzylamino}-ethyl)-2-oxo-oxazolidin-3-yl]-4H-pyrido[3,2-b][1,4]oxazin-3-one]
2 (≈ 3.77 µM) | 0.5 (≈ 0.942 µM) | 1 (≈ 1.88 µM) | 1 (≈ 1.88 µM) | O=C1COc2ccc(N3C[C@H](CCNCc4cccc(-c5cccc(OC[C@H]6CCN6)n5)c4)OC3=O)nc2N1 [Example $124, 6-[(S)-5-(2-{3-[6-((R)-1-azetidin-2-ylmethoxy)-pyridin-2-yl]-benzylamino}-ethyl)-2-oxo-oxazolidin-3-yl]-4H-pyrido[3,2-b][1,4]oxazin-3-one]
2 (≈ 3.65 µM) | 0.5 (≈ 0.913 µM) | 1 (≈ 1.83 µM) | 1 (≈ 1.83 µM) | NCCNCCOc1cccc(-c2cccc(CNCC[C@H]3CN(c4ccc5c(n4)NC(=O)CO5)C(=O)O3)c2)n1 [Example $156, 6-{(S)-5-[2-(3-{6-[2-(2-amino-ethylamino)-ethoxy]-pyridin-2-yl}-benzylamino)-ethyl]-2-oxo-oxazolidin-3-yl}-4H-pyrido[3,2-b][1,4]oxazin-3-one]
1 (≈ 1.88 µM) | 0.5 (≈ 0.941 µM) | 0.5 (≈ 0.941 µM) | 0.25 (≈ 0.47 µM) | CN1CC(Oc2cccc(-c3ccnc(CNCC[C@H]4CN(c5ccc6c(n5)NC(=O)CO6)C(=O)O4)c3)n2)C1 [Example $186, 6-[(S)-5-(2-{[6-(1-methyl-azetidin-3-yloxy)-[2,4′]bipyridinyl-2′-ylmethyl]-amino}-ethyl)-2-oxo-oxazolidin-3-yl]-4H-pyrido[3,2-b][1,4]oxazin-3-one]
4 | 4 | 4 | 4 | CC(CN)Oc1cccc(-c2cccc(CNCC[C@H]3CN(c4ccc5c(n4)NC(=O)CO5)C(=O)O3)c2)c1 (mixture of isomers) [Example 6, 6-((S)-5-(2-(((3′-(((RS)-1-aminopropan-2-yl)oxy)-[1,1′-biphenyl]-3-yl)methyl)amino)ethyl)-2-oxooxazolidin-3-yl)-2H-pyrido[3,2-b][1,4]oxazin-3(4H)-one]
2 (≈ 3.57 µM) | 2 (≈ 3.57 µM) | 1 (≈ 1.79 µM) | 0.25 (≈ 0.447 µM) | CN1CC[C@@H](Oc2cccc(-c3cccc(CNCC[C@@H]4CN(c5ccc6c(c5)NC(=O)CS6)C(=O)O4)c3)n2)C1 [Example $169, 6-[(R)-5-(2-{3-[6-((R)-1-methyl-pyrrolidin-3-yloxy)-pyridin-2-yl]-benzylamino}-ethyl)-2-oxo-oxazolidin-3-yl]-4H-benzo[1,4]thiazin-3-one]
